According to publication PMC5218480 (PLoS ONE, 2017):

Tested on: MV-4-11 cells
Assay: Gene expression microarray analysis (Affymetrix PrimeView) and GSEA
Format: cell-based, human
Design: RFU PODN (11730768_x_at) / Fold change /veh PODN (11730768_x_at) / RFU LINC00158 (11744669_a_at) / Fold change /veh LINC00158 (11744669_a_at) / RFU DUSP10 (11751237_a_at) / Fold change /veh DUSP10 (11751237_a_at) / RFU ID3 (11757404_x_at) / Fold change /veh ID3 (11757404_x_at) / RFU PLEKHG5 (11737974_s_at) / Fold change /veh PLEKHG5 (11737974_s_at) / RFU LRRC4B (11730491_at) / Fold change /veh LRRC4B (11730491_at) / RFU GIMAP4 (11747438_a_at) / Fold change /veh GIMAP4 (11747438_a_at) / RFU KRT8 (11758183_x_at) / Fold change /veh KRT8 (11758183_x_at) / RFU CNN1 (11734310_a_at) / Fold change /veh CNN1 (11734310_a_at) / RFU VPS37D (11726825_at) / Fold change /veh VPS37D (11726825_at) / RFU C10orf10 (11716522_x_at) / Fold change /veh C10orf10 (11716522_x_at) / RFU KIR2DL2 /// KIR2DL4 /// KIR2DL5A /// KIR2DL5B /// KIR2DS1 /// KIR2DS2 /// KIR2DS3 /// KIR2DS4 /// KIR3DL3 /// KIR3DL3 /// KIR3DS1 (11738374_at) / Fold change /veh KIR2DL2 /// KIR2DL4 /// KIR2DL5A /// KIR2DL5B /// KIR2DS1 /// KIR2DS2 /// KIR2DS3 /// KIR2DS4 /// KIR3DL3 /// KIR3DL3 /// KIR3DS1 (11738374_at) / RFU C1QL1 (11718748_at) / Fold change /veh C1QL1 (11718748_at) / RFU TMPRSS4 (11747572_a_at) / Fold change /veh TMPRSS4 (11747572_a_at) / RFU HAMP (11756126_x_at) / Fold change /veh HAMP (11756126_x_at) / RFU RNFT2 (11725882_a_at) / Fold change /veh RNFT2 (11725882_a_at) / RFU NR4A2 (11747474_a_at) / Fold change /veh NR4A2 (11747474_a_at) / RFU ABCC12 (11746883_a_at) / Fold change /veh ABCC12 (11746883_a_at) / RFU TMEM136 (11760407_x_at) / Fold change /veh TMEM136 (11760407_x_at) / RFU CLDN22 /// WWC2 (11732394_at) / Fold change /veh CLDN22 /// WWC2 (11732394_at) / RFU HLA-DPB1 (11760878_x_at) / Fold change /veh HLA-DPB1 (11760878_x_at) / RFU SPINT1 (11716480_a_at) / Fold change /veh SPINT1 (11716480_a_at) / RFU GAP43 (11754022_s_at) / Fold change /veh GAP43 (11754022_s_at) / RFU A4GNT (11735810_at) / Fold change /veh A4GNT (11735810_at) / RFU PRB3 (11715151_x_at) / Fold change /veh PRB3 (11715151_x_at) / RFU TUBB4B (11761932_at) / Fold change /veh TUBB4B (11761932_at) / RFU CAPN14 (11732068_a_at) / Fold change /veh CAPN14 (11732068_a_at) / RFU TMCC2 (11721928_a_at) / Fold change /veh TMCC2 (11721928_a_at) / RFU IRGQ (11745062_a_at) / Fold change /veh IRGQ (11745062_a_at) / RFU FAM174B (11720279_a_at) / Fold change /veh FAM174B (11720279_a_at) / RFU TMPRSS4 (11748680_a_at) / Fold change /veh TMPRSS4 (11748680_a_at) / RFU FAM212B (11763350_a_at) / Fold change /veh FAM212B (11763350_a_at) / RFU PLEKHG5 (11743358_a_at) / Fold change /veh PLEKHG5 (11743358_a_at) / RFU ZSCAN30 (11745921_a_at) / Fold change /veh ZSCAN30 (11745921_a_at) / RFU CMKLR1 (11741424_a_at) / Fold change /veh CMKLR1 (11741424_a_at) / RFU LOC101060620 /// MAPK8IP1 (11723275_at) / Fold change /veh LOC101060620 /// MAPK8IP1 (11723275_at) / RFU SPTSSB (11747773_x_at) / Fold change /veh SPTSSB (11747773_x_at) / RFU PRSS12 (11739890_at) / Fold change /veh PRSS12 (11739890_at) / RFU BIN1 (11741810_x_at) / Fold change /veh BIN1 (11741810_x_at) / RFU WNT11 (11732464_a_at) / Fold change /veh WNT11 (11732464_a_at) / RFU C10orf10 (11716521_a_at) / Fold change /veh C10orf10 (11716521_a_at) / RFU C5orf56 (11738089_at) / Fold change /veh C5orf56 (11738089_at) / RFU CYB561 (11721691_x_at) / Fold change /veh CYB561 (11721691_x_at) / RFU ANKRD19P (11752326_a_at) / Fold change /veh ANKRD19P (11752326_a_at) / RFU OR2T12 /// OR2T33 /// OR2T8 (11738714_s_at) / Fold change /veh OR2T12 /// OR2T33 /// OR2T8 (11738714_s_at) / RFU VCAN (11748164_a_at) / Fold change /veh VCAN (11748164_a_at) / RFU JSRP1 (11732532_at) / Fold change /veh JSRP1 (11732532_at) / RFU KRTAP10-11 (11738290_x_at) / Fold change /veh KRTAP10-11 (11738290_x_at) / RFU MYO3A (11730013_a_at) / Fold change /veh MYO3A (11730013_a_at) / RFU EBF3 (11725865_a_at) / Fold change /veh EBF3 (11725865_a_at) / RFU CAMK2N1 (11719241_x_at) / Fold change /veh CAMK2N1 (11719241_x_at) / RFU C5orf56 (11738088_a_at) / Fold change /veh C5orf56 (11738088_a_at) / RFU OLFML3 (11715873_a_at) / Fold change /veh OLFML3 (11715873_a_at) / RFU LOC100653217 /// NTM (11731650_a_at) / Fold change /veh LOC100653217 /// NTM (11731650_a_at) / RFU MAPK11 (11762145_a_at) / Fold change /veh MAPK11 (11762145_a_at) / RFU FIZ1 (11724087_x_at) / Fold change /veh FIZ1 (11724087_x_at) / RFU OASL (11726364_x_at) / Fold change /veh OASL (11726364_x_at) / RFU SOX15 (11748057_x_at) / Fold change /veh SOX15 (11748057_x_at) / RFU CD79A (11719716_a_at) / Fold change /veh CD79A (11719716_a_at) / RFU HIST1H1D (11736915_at) / Fold change /veh HIST1H1D (11736915_at) / RFU CASKIN2 (11723855_a_at) / Fold change /veh CASKIN2 (11723855_a_at) / RFU LOC730098 (11760151_x_at) / Fold change /veh LOC730098 (11760151_x_at) / RFU OR4N2 (11742367_at) / Fold change /veh OR4N2 (11742367_at) / RFU PRRT2 (11749266_a_at) / Fold change /veh PRRT2 (11749266_a_at) / RFU SNX32 (11753110_a_at) / Fold change /veh SNX32 (11753110_a_at) / RFU CDHR5 (11726645_a_at) / Fold change /veh CDHR5 (11726645_a_at) / RFU RCAN1 (11760418_a_at) / Fold change /veh RCAN1 (11760418_a_at) / RFU FAM167A (11723789_a_at) / Fold change /veh FAM167A (11723789_a_at) / RFU FAM26E (11764081_at) / Fold change /veh FAM26E (11764081_at) / RFU ISYNA1 (11749810_s_at) / Fold change /veh ISYNA1 (11749810_s_at) / RFU ACY1 (11761880_at) / Fold change /veh ACY1 (11761880_at) / RFU 11764098_at / Fold change /veh 11764098_at / RFU SAMD14 (11745864_x_at) / Fold change /veh SAMD14 (11745864_x_at) / RFU NPB (11741838_a_at) / Fold change /veh NPB (11741838_a_at) / RFU TMPRSS6 (11731388_a_at) / Fold change /veh TMPRSS6 (11731388_a_at) / RFU KRTAP10-2 (11738614_at) / Fold change /veh KRTAP10-2 (11738614_at) / RFU ARHGAP8 /// PRR5-ARHGAP8 (11727945_x_at) / Fold change /veh ARHGAP8 /// PRR5-ARHGAP8 (11727945_x_at) / RFU KRTAP5-7 /// NADSYN1 (11734609_at) / Fold change /veh KRTAP5-7 /// NADSYN1 (11734609_at) / RFU RASL12 (11751679_a_at) / Fold change /veh RASL12 (11751679_a_at) / RFU CDKN2B (11736163_a_at) / Fold change /veh CDKN2B (11736163_a_at) / RFU PRF1 (11729649_at) / Fold change /veh PRF1 (11729649_at) / RFU, ZNF638 /// ZNF638-IT1 / Fold change vs veh, ZNF638 /// ZNF638-IT1 / RFU, PANK3 / Fold change vs veh, PANK3 / RFU, SH3YL1 / Fold change vs veh, SH3YL1 / RFU, ZEB2 / Fold change vs veh, ZEB2 / RFU, NRIP1 / Fold change vs veh, NRIP1 / RFU, PTTG1IP / Fold change vs veh, PTTG1IP / RFU, CAPN2 / Fold change vs veh, CAPN2 / RFU, MED14 / Fold change vs veh, MED14 / RFU, SNORA58 / Fold change vs veh, SNORA58 / RFU, C1orf63 / Fold change vs veh, C1orf63 / RFU, LRRFIP1 / Fold change vs veh, LRRFIP1 / RFU, NDUFAF7 / Fold change vs veh, NDUFAF7 / RFU, SLC12A2 / Fold change vs veh, SLC12A2 / RFU, IBTK / Fold change vs veh, IBTK / RFU, ESF1 / Fold change vs veh, ESF1 / Fold change vs veh, TMEM50B / RFU, TAOK1 / Fold change vs veh, TAOK1 / RFU, ACBD3 / Fold change vs veh, ACBD3 / RFU, TMA16 / Fold change vs veh, TMA16 / RFU, RWDD3 / Fold change vs veh, RWDD3 / RFU, BCAT1 / Fold change vs veh, BCAT1 / RFU, EDEM3 / Fold change vs veh, EDEM3 / RFU, TMEM33 / Fold change vs veh, TMEM33 / RFU, WDR75 / Fold change vs veh, WDR75 / RFU, AHCTF1 / Fold change vs veh, AHCTF1 / RFU, TFRC / Fold change vs veh, TFRC / RFU, ZDHHC17 / Fold change vs veh, ZDHHC17 / RFU, NOM1 / Fold change vs veh, NOM1 / RFU, ARL8B / Fold change vs veh, ARL8B / RFU, ZBTB11 / Fold change vs veh, ZBTB11 / RFU, TAMM41 / Fold change vs veh, TAMM41 / RFU, KIAA1704 /// LOC100996395 / Fold change vs veh, KIAA1704 /// LOC100996395 / RFU, ING1 / Fold change vs veh, ING1 / RFU, TRMT61B / Fold change vs veh, TRMT61B / RFU, FUBP3 / Fold change vs veh, FUBP3 / RFU, TP53 / Fold change vs veh, TP53 / RFU, TNKS2 / Fold change vs veh, TNKS2 / RFU, ZFP14 / Fold change vs veh, ZFP14 / RFU, ACTR2 / Fold change vs veh, ACTR2 / RFU, PPP3R1 / Fold change vs veh, PPP3R1 / RFU, PIK3R1 / Fold change vs veh, PIK3R1 / RFU, HNRNPA1 / Fold change vs veh, HNRNPA1 / RFU, RNF170 / Fold change vs veh, RNF170 / RFU, ZNF28 / Fold change vs veh, ZNF28 / RFU, RNGTT / Fold change vs veh, RNGTT / RFU, OGT / Fold change vs veh, OGT / RFU, BRD1 / Fold change vs veh, BRD1 / RFU, MARS / Fold change vs veh, MARS / RFU, ZNF655 / Fold change vs veh, ZNF655 / RFU, FAHD1 / Fold change vs veh, FAHD1 / RFU, BDP1 / Fold change vs veh, BDP1 / RFU, LRRCC1 / Fold change vs veh, LRRCC1 / RFU, ARID1A / Fold change vs veh, ARID1A / RFU, ZNF146 / Fold change vs veh, ZNF146 / RFU, ZNF330 / Fold change vs veh, ZNF330 / RFU, GPN3 / Fold change vs veh, GPN3 / RFU, C9orf123 / Fold change vs veh, C9orf123 / RFU, N4BP2L2 / Fold change vs veh, N4BP2L2 / RFU, ARFIP1 / Fold change vs veh, ARFIP1 / RFU, FAM179B / Fold change vs veh, FAM179B / RFU, BCL10 / Fold change vs veh, BCL10 / RFU, UHRF1BP1L / Fold change vs veh, UHRF1BP1L / RFU, BET1 / Fold change vs veh, BET1 / RFU, CNOT2 / Fold change vs veh, CNOT2 / RFU, ZNF268 / Fold change vs veh, ZNF268 / Fold change vs veh, ZNF507 / RFU, DGCR2 / Fold change vs veh, DGCR2 / RFU, WDSUB1 / Fold change vs veh, WDSUB1 / Fold change vs veh, HSP90B1 /// MIR3652 / RFU, ADSS / Fold change vs veh, ADSS / RFU, GK / Fold change vs veh, GK / RFU, ZNF148 / Fold change vs veh, ZNF148 / RFU, TAF9 / Fold change vs veh, TAF9 / RFU, SLC1A5 / Fold change vs veh, SLC1A5 / RFU, SLMO2 / Fold change vs veh, SLMO2 / RFU, ABCC4 / Fold change vs veh, ABCC4 / RFU, LOC101060439 /// RAP1B / Fold change vs veh, LOC101060439 /// RAP1B / RFU, RFX7 / Fold change vs veh, RFX7 / RFU, GTPBP10 / Fold change vs veh, GTPBP10 / RFU, CNEP1R1 / Fold change vs veh, CNEP1R1 / RFU, BIVM-ERCC5 /// ERCC5 / Fold change vs veh, BIVM-ERCC5 /// ERCC5 / RFU, ILF3 / Fold change vs veh, ILF3 / RFU 11762660_at / Fold change /veh 11762660_at / RFU VCAN (11757783_s_at) / Fold change /veh VCAN (11757783_s_at) / RFU DDX43 (11728927_at) / Fold change /veh DDX43 (11728927_at) / RFU KRT8 (11758188_x_at) / Fold change /veh KRT8 (11758188_x_at) / RFU NKD1 (11759106_at) / Fold change /veh NKD1 (11759106_at) / RFU SRD5A1 (11742802_a_at) / Fold change /veh SRD5A1 (11742802_a_at) / RFU TPSAB1 /// TPSB2 (11721975_s_at) / Fold change /veh TPSAB1 /// TPSB2 (11721975_s_at) / RFU GSTM3 (11746129_a_at) / Fold change /veh GSTM3 (11746129_a_at) / RFU IL23R (11737362_x_at) / Fold change /veh IL23R (11737362_x_at) / RFU TMEM51 (11727254_a_at) / Fold change /veh TMEM51 (11727254_a_at) / RFU PIWIL2 (11732686_x_at) / Fold change /veh PIWIL2 (11732686_x_at) / RFU ORM1 (11744905_x_at) / Fold change /veh ORM1 (11744905_x_at) / RFU CCDC152 (11743942_at) / Fold change /veh CCDC152 (11743942_at) / RFU ECM1 (11717891_a_at) / Fold change /veh ECM1 (11717891_a_at) / RFU IL23R (11748794_a_at) / Fold change /veh IL23R (11748794_a_at) / RFU TNFAIP8L3 (11732012_x_at) / Fold change /veh TNFAIP8L3 (11732012_x_at) / RFU MBOAT4 (11741988_at) / Fold change /veh MBOAT4 (11741988_at) / RFU 11764193_at / Fold change /veh 11764193_at / RFU TMEM53 (11763286_at) / Fold change /veh TMEM53 (11763286_at) / RFU MAGEB2 (11727129_at) / Fold change /veh MAGEB2 (11727129_at) / RFU TMEM200A (11744735_a_at) / Fold change /veh TMEM200A (11744735_a_at) / RFU CCDC152 (11751479_a_at) / Fold change /veh CCDC152 (11751479_a_at) / RFU FAM211A (11726209_a_at) / Fold change /veh FAM211A (11726209_a_at) / RFU RGS16 (11746705_a_at) / Fold change /veh RGS16 (11746705_a_at) / RFU VCAN (11755009_s_at) / Fold change /veh VCAN (11755009_s_at) / RFU RHOB (11743442_s_at) / Fold change /veh RHOB (11743442_s_at) / RFU RGS16 (11720943_a_at) / Fold change /veh RGS16 (11720943_a_at) / RFU RGS16 (11720944_at) / Fold change /veh RGS16 (11720944_at) / RFU, VPS4B / Fold change vs veh, VPS4B / RFU, CREB1 / Fold change vs veh, CREB1 / RFU, DNAJC13 / Fold change vs veh, DNAJC13 / RFU, GNAQ / Fold change vs veh, GNAQ / RFU, CDK5R1 / Fold change vs veh, CDK5R1 / RFU, ZRANB3 / Fold change vs veh, ZRANB3 / RFU, CUL4A / Fold change vs veh, CUL4A / RFU, CCNY / Fold change vs veh, CCNY / RFU, UFL1 / Fold change vs veh, UFL1 / RFU, COG3 / Fold change vs veh, COG3 / RFU, DIAPH2 / Fold change vs veh, DIAPH2 / RFU, SKA2 / Fold change vs veh, SKA2 / RFU, AFF3 / Fold change vs veh, AFF3 / RFU, LMF1 / Fold change vs veh, LMF1 / RFU, IPO11 / Fold change vs veh, IPO11 / RFU, DFFB / Fold change vs veh, DFFB / RFU, FOXP1 / Fold change vs veh, FOXP1 / RFU, CARD8 / Fold change vs veh, CARD8 / RFU, STRN3 / Fold change vs veh, STRN3 / RFU, ADK / Fold change vs veh, ADK / RFU, RASSF2 / Fold change vs veh, RASSF2 / RFU, WIPF1 / Fold change vs veh, WIPF1 / RFU, LARP1B / Fold change vs veh, LARP1B / RFU, RASA1 / Fold change vs veh, RASA1 / RFU, RB1 / Fold change vs veh, RB1 / RFU, PPFIA1 / Fold change vs veh, PPFIA1 / RFU, MAT2A / Fold change vs veh, MAT2A / RFU, CCT5 / Fold change vs veh, CCT5 / RFU, WDR92 / Fold change vs veh, WDR92 / RFU, CUX1 / Fold change vs veh, CUX1 / RFU, TTC7A / Fold change vs veh, TTC7A / RFU, TMEM135 / Fold change vs veh, TMEM135 / RFU, DEPTOR / Fold change vs veh, DEPTOR / RFU, CPM / Fold change vs veh, CPM / RFU, DNAJB6 / Fold change vs veh, DNAJB6 / RFU, CACNA2D3 / Fold change vs veh, CACNA2D3 / RFU, DTX4 / Fold change vs veh, DTX4 / RFU, TFCP2 / Fold change vs veh, TFCP2 / RFU, GMCL1 /// GMCL1P1 / Fold change vs veh, GMCL1 /// GMCL1P1 / RFU, AEBP2 / Fold change vs veh, AEBP2 / RFU, SNHG1 /// SNORD22 /// SNORD25 /// SNORD26 /// SNORD27 /// SNORD28 /// SNORD29 /// SNORD31 / Fold change vs veh, SNHG1 /// SNORD22 /// SNORD25 /// SNORD26 /// SNORD27 /// SNORD28 /// SNORD29 /// SNORD31 / Fold change (Aza/veh), C12orf56 (ProbeSet 11735607_a_at) / Fold change (ACY-1035/veh), C12orf56 (ProbeSet 11735607_a_at) / Fold change (Aza/veh), FGFR1OP (ProbeSet 11751329_s_at) / Fold change (ACY-1035/veh), FGFR1OP (ProbeSet 11751329_s_at) / Fold change (Aza/veh), VPS36 (ProbeSet 11739960_a_at) / Fold change (ACY-1035/veh), VPS36 (ProbeSet 11739960_a_at) / RFU SYPL1 (11715823_x_at) / Fold change /veh SYPL1 (11715823_x_at) / RFU IGFBP7 (11715501_s_at) / Fold change /veh IGFBP7 (11715501_s_at) / RFU REEP3 (11722064_at) / Fold change /veh REEP3 (11722064_at) / RFU IGLL1 (11728026_x_at) / Fold change /veh IGLL1 (11728026_x_at): dose or concentration left out as unconfirmed
Conditions: MV-4-11 cells, 48 hours

SMILES: Nc1ncn([C@@H]2O[C@H](CO)[C@@H](O)[C@H]2O)c(=O)n1 [azacitidine]
- Fold change /veh MYO3A (11730013_a_at): 0.99
